Source: patent US9586931B2 (Merck Sharp & Dohme Corp., priority 2012, dated 2017)

molecular target: T1, recombinant human GST-Syk (Homo sapiens, UniProt P43405); test: Homogeneous Time-Resolved Fluorescence (HTRF) assay for the recombinant human Syk enzyme; format: biochemical; details: recombinant human GST-Syk 5 pM, ATP 25 μM, 10-dose titration 10 μM to 0.508 nM; read-out: rhSYK Activity IC50
T1 construct: purchased Carna Biosciences 08-176
Description: Syk inhibition may be determined using the following assay protocol:
Homogeneous Time-Resolved Fluorescence (HTRF) assay for the recombinant human Syk enzyme: A recombinant GST-hSyk fusion protein was used to measure potency of compounds to inhibit human Syk activity. […] Final volume of the reaction was 10 μL. Phosphorylation of the peptide was allowed to proceed for 45 minutes at room temperature. To quench the reaction and detect the phosphorylated product, 2 nM of a Europium-anti-phosphotyrosine antibody (Perkin Elmer #AD0161) and 70 nM SA-APC (Perkin-Elmer #CR130-100) were added together in 15 mM Tris pH 7.5, 40 mM EDTA, 0.01% tween 20. Final volume of the quenching solution was 10 μL. The resulting HTRF signal was measured after 30 minutes on an EnVision (Perkin-Elmer) reader using a time-resolved fluorescence protocol.

IC50 [nM]	SMILES
5.1	Cc1cc(Nc2cc(C(F)(F)F)ccn2)nc(-c2cn(CS(N)(=O)=O)nn2)c1 [Example 5.107, 1-[4-(4-methyl-6-{[4-(trifluoromethyl)pyridin-2-yl]amino}pyridin-2-yl)-1H-1,2,3-triazol-1-yl]methanesulfonamide]
80	COC(=O)C(C)CCn1cc(-c2cc(C)cc(Nc3cc(C(F)(F)F)ccn3)n2)nn1 (racemic) [Example 5.85, methyl 2-methyl-4-[4-(4-methyl-6-{[4-(trifluoromethyl)pyridin-2-yl]amino}pyridin-2-yl)-1H-1,2,3-triazol-1-yl]butanoate]
39.8	Cc1cc(Nc2cc(C(F)(F)F)ccn2)nc(-c2cn([C@@H](C)C(=O)O)nn2)c1 [Example 5.30, (2S)-2-[4-(4-methyl-6-{[4-(trifluoromethyl)pyridin-2-yl]amino}pyridin-2-yl)-1H-1,2,3-triazol-1-yl]propanoic acid]
55.4	Cc1cc(Nc2nccc(C(F)(F)F)n2)cc(-c2cn([C@@H]3CCC[C@H](O)C3)nn2)c1 (racemic) [Example 17.1, Racemic cis-3-(4-(3-methyl-5-((4-(trifluoromethyl)pyrimidin-2-yl)amino)phenyl)-1H-1,2,3-triazol-1-yl)cyclohexanol]
240	Cc1ccnc(Nc2cc(C)cc(-c3cn(C[C@@H](C)CO)nn3)n2)c1 [Example 5.15, (2R)-2-methyl-3-(4-{4-methyl-6-[(4-methylpyridin-2-yl)amino]pyridin-2-yl}-1H-1,2,3-triazol-1-yl)propan-1-ol]
26.6	Cc1cc(Nc2cc(C(F)(F)F)ccn2)nc(-c2cn(CC(C)(O)C(=O)O)nn2)c1 (stereo not shown) [Example 4.18, 2-hydroxy-2-methyl-3-[4-(4-methyl-6-{[4-(trifluoromethyl)pyridin-2-yl]amino}pyridin-2-yl)-1H-1,2,3-triazol-1-yl]propanoic acid]
7.4	Cc1cc(Nc2nccc(C3CC3)n2)cc(-c2cn(CC(C)(O)C(C)(C)O)nn2)c1 (stereo not shown) [Example 21.14, 1-(4-{3-[(4-cyclopropylpyrimidin-2-yl)amino]-5-methylphenyl}-1H-1,2,3-triazol-1-yl)-2,3-dimethylbutane-2,3-diol]
38.5	Cc1cc(Nc2nccc(C(F)F)n2)cc(-c2cn(CC(C)(O)C(C)(C)O)nn2)c1 (stereo not shown) [Example 21.18, 1-[4-(3-{[4-(difluoromethyl)pyrimidin-2-yl]amino}-5-methylphenyl)-1H-1,2,3-triazol-1-yl]-2,3-dimethylbutane-2,3-diol]
6.3	Cc1cc(Nc2nccc(C(F)F)n2)cc(-c2cn(C(C)C(C)(O)CO)nn2)c1 (single isomer, unassigned) [Example 30.2, 3-(4-(3-((4-(Difluoromethyl)pyrimidin-2-yl)amino)-5-methylphenyl)-1H-1,2,3-triazol-1-yl)-2-methylbutane-1,2-diol]
16	Cc1cc(Nc2cc(C(F)(F)F)ccn2)nc(-c2cn(C3CCC(C(=O)O)c4ccccc43)nn2)c1 (stereo not shown) [Example 3.19, 4-[4-(4-methyl-6-{[4-(trifluoromethyl)pyridin-2-yl]amino}pyridin-2-yl)-1H-1,2,3-triazol-1-yl]-1,2,3,4-tetrahydronaphthalene-1-carboxylic acid]
16.2	Cc1cc(Nc2nccc(C(F)F)n2)cc(-c2cn(C3CCCCC3(C)O)nn2)c1 (single isomer, unassigned) [Example 7.19, 2-[4-(3-{[4-(difluoromethyl)pyrimidin-2-yl]amino}-5-methylphenyl)-1H-1,2,3-triazol-1-yl]-1-methylcyclohexanol]
52	Cc1cc(Nc2cc(C(F)(F)F)ccn2)nc(-c2cn(C3C=CCCC3)nn2)c1 (stereo not shown) [Example 5.36, 6-(1-cyclohex-2-en-1-yl-1H-1,2,3-triazol-4-yl)-4-methyl-N-[4-(trifluoromethyl)pyridin-2-yl]pyridin-2-amine]

SMILES	IC50 [nM]
Cc1cc(Nc2nccc(C(F)F)n2)cc(-c2cn(C3CCCCC3O)nn2)c1 (stereo not shown) [Example 4.34]	4.1
